Each structure is given as a SMILES string.

One assay deals with male KK-A^y mice. Put plainly: Hypoglycemic action (method A). The assay is classed as in vivo, mouse. The following applies: dose 10 mg/kg orally, 4 consecutive days, non-fasting, about 24 hours after final administration, vs control group. The procedure:
The glucose level in the plasma was measured using a commercially available assay kit (glucose CII-test WAKO, Wako Pure Chemical Industries, Ltd.). The mice were grouped (5 mice per group) into a control group and an administration group, such that the mean and the standard deviation of the glucose level in the plasma of each group were nearly the same. Each test compound was suspended or dissolved in 5% gum arabic solution and administered orally to the administration group for 4 consecutive days from the next day. The 5% gum arabic solution was orally administered to the control group. Blood was drawn from the tail vein under a non-fasting state about 24 hours after the final administration and the glucose level in the plasma was measured. The decrease in the plasma glucose level was calculated from the following formula.
Decrease (%) in plasma glucose level=[(mean plasma glucose level of control group−mean plasma glucose level of test compound administration group)/mean plasma glucose level of control group]×100
For `Cc1oc(-c2ccccc2)nc1CCOc1ccc2c(c1)CN(CC(C)C)[C@H](C(=O)O)C2` [Example 7, 2-Isobutyl-7-[2-(5-methyl-2-phenyloxazol-4-yl)ethoxy]-1,2,3,4-tetrahydroisoquinoline-(3S)-carboxylic acid], the “Decrease (%) in plasma glucose level” value is recorded as 11.4%. For the molecule `CCCCCCN1Cc2cc(OCCc3nc(-c4ccccc4)oc3C)ccc2C[C@H]1C(=O)O` [Example 6], the “Decrease (%) in plasma glucose level” value worked out at 10.7%.

The assay is the same for the next values; noted with them: dose 30 mg/kg orally, 4 consecutive days, non-fasting, about 24 hours after final administration, vs control group.
Consider `Cc1oc(-c2ccccc2)nc1CCOc1ccc2c(c1)CN(CC(C)C)[C@H](C(=O)O)C2` [Example 7, 2-Isobutyl-7-[2-(5-methyl-2-phenyloxazol-4-yl)ethoxy]-1,2,3,4-tetrahydroisoquinoline-(3S)-carboxylic acid], for which the “Decrease (%) in plasma glucose level” value is 17.4%. Still for that read-out and setting: to `Cc1oc(-c2ccccc2)nc1CCOc1ccc2c(c1)CN(Cc1ccccn1)[C@H](C(=O)[O-])C2.[Na+]` [Example 48, Sodium 7-[2-(5-methyl-2-phenyloxazol-4-yl)ethoxy]-2-(pyridin-2-ylmethyl)-1,2,3,4-tetrahydroisoquinoline-(3S)-carboxylate] belongs 16.1%; to `O=C(O)[C@@H]1Cc2ccc(OCCC3CNc4ccccc43)cc2CN1Cc1ccccc1` (stereo partly drawn) [Example 41, 2-Benzyl-7-[(indolin-3-yl)ethoxy]-1,2,3,4-tetrahydroisoquinoline-(3S)-carboxylic acid], 11.1%; to `CCOC(=O)CCCN1Cc2cc(OCCc3nc(-c4ccccc4)oc3C)ccc2C[C@H]1C(=O)O` [Example 71, 2-[3-(Ethoxycarbonyl)propyl]-7-[2-(5-methyl-2-phenyloxazol-4-yl)ethoxy]-1,2,3,4-tetrahydroisoquinoline-(3S)-carboxylic acid], 10.5%. Consider `Cc1oc(-c2ccccc2)nc1CCOc1ccc2c(c1)CN(C(=O)CC(C)(C)C)[C@H](C(=O)O)C2` [Example 46, 2-(3,3-Dimethylbutyryl)-7-[2-(5-methyl-2-phenyloxazol-4-yl)ethoxy]-1,2,3,4-tetrahydroisoquinoline-(3S)-carboxylic acid], for which the “Decrease (%) in plasma glucose level” value turned out to be 28.6%.

For the molecule `CC(C)=CC(=O)N1Cc2cc(OCCc3nc(-c4ccccc4)oc3C)ccc2C[C@H]1C(=O)O` [Example 45, 2-(3-Methyl-2-butenoyl)-7-[2-(5-methyl-2-phenyloxazol-4-yl)ethoxy]-1,2,3,4-tetrahydroisoquinoline-(3S)-carboxylic acid], the “Decrease (%) in plasma glucose level” value is on record as 12.6%.

Take `COC(=O)CCC(=O)N1Cc2cc(OCCc3nc(-c4ccccc4)oc3C)ccc2C[C@H]1C(=O)O` [Example 70, 2-[3-(Methoxycarbonyl)propionyl]-7-[2-(5-methyl-2-phenyloxazol-4-yl)ethoxy]-1,2,3,4-tetrahydroisoquinoline-(3S)-carboxylic acid]: the “Decrease (%) in plasma glucose level” value is 15.2%. In the case of `O=C(O)[C@@H]1Cc2ccc(OCCc3cc4ccccc4o3)cc2CN1Cc1ccccc1` [Example 67, 7-[2-(Benzofran-2-yl)ethoxy]-2-benzyl-1,2,3,4-tetrahydroisoquinoline-(3S)-carboxylic acid], the “Decrease (%) in plasma glucose level” value is 10.6%.

On to `Cc1oc(-c2ccccc2)nc1CCOc1ccc2c(c1)CN(CCCc1ccccc1)[C@H](C(=O)O)C2` [Example 9, 7-[2-(5-Methyl-2-phenyloxazol-4-yl)ethoxy]-2-(3-phenylpropyl)-1,2,3,4-tetrahydroisoquinoline-(3S)-carboxylic acid], for which the “Decrease (%) in plasma glucose level” value is given as 20.3%. On to `CCCCCCN1Cc2cc(OCCc3nc(-c4ccccc4)oc3C)ccc2C[C@H]1C(=O)O` [Example 6], for which the “Decrease (%) in plasma glucose level” value is recorded as 12.2%. As for `CC(C)(C)CN1Cc2cc(OCc3ccc4nc(C(C)(C)C)oc4c3)ccc2C[C@H]1C(=O)O` [Example 54, 7-(2-tert-Butylbenzoxazol-6-yl)methoxy-2-(2,2-dimethylpropyl)-1,2,3,4-tetrahydroisoquinoline-(3S)-carboxylic acid], the “Decrease (%) in plasma glucose level” value is listed as 10.8%.

As to `CC(C)c1nc2cc(COc3ccc4c(c3)CN(Cc3ccccc3)[C@H](C(=O)O)C4)ccc2o1` [Example 55, 2-Benzyl-7-(2-isopropylbenzoxazol-5-yl)methoxy-1,2,3,4-tetrahydroisoquinoline-(3S)-carboxylic acid], the “Decrease (%) in plasma glucose level” value came out at 13.9%.

Values taken from patent US6589963B2, “Heterocyclic compounds and salts thereof and medicinal use of the same” (Kyoto Pharmaceutical Industries, Ltd., priority 1999, dated 2003).
